Results reported in patent publication US9938269B2, “Inhibitor compounds of phosphodiesterase type 10A” (ABBVIE INC., priority 2011, dated 2018).
Where a name gives a salt, the structure may show the parent alone.

Molecular target: T1, PDE10A (human) (Homo sapiens, UniProt Q9Y233)
T1 construct: purchased BPS Bioscience
Assay: Measurement of PDE activity (HTRF cAMP kit), human PDE10A
Format: biochemical
Details: PDE enzymatic reaction, substrate 20 nM for PDE10, 60 minutes at 29 C
Procedure: The recombinant PDE proteins are used in in vitro enzymatic reaction for measurement of PDE activity. These recombinant proteins, including PDE10A (human, rat and mouse PDE10) and isoforms of PDEs 1, 3, 4, and 5, were purchased from commercial vendor BPS Bioscience. The enzymatic activity of PDEs was determined by cAMP measurement kit from CisBio (IBA) using HTRF technology.
The PDE enzymatic reaction was carried out in assay buffer (20 mM Tris-HCl pH7.5, 10 mM MgCl2, 0.1% bovine serum albumin) containing enzyme and substrate. The PDE enzymes concentration ranged from 10 pM-250 pM, depending on each enzyme's specific activity. The substrate cyclic nucleotide (cAMP or cGMP) concentration used in the assay was 20 nM for PDE10, and 100 nM for other PDEs. The inhibitory effect of compound was determined by incubating various concentration of inhibitor in the enzymatic assay. Typically, compound was serial diluted in DMSO then further diluted in assay buffer. Next, the compound at varying concentration was mixed with PDE enzyme. The reaction was initiated by addition of cyclic nucleotide substrate, and incubated for 60 minutes at 29 C. The reaction was stopped by addition of lysis buffer from assay kit. The cAMP-d2 and anti-cAMP cryptate in the lysis buffer detected the level of cAMP left from the PDE hydrolysis reaction. The PDE activity is reversely correlated with the amount of cAMP left in the reaction and can be converted to the percent activity of an uninhibited control (100%). Thus, IC50 value of inhibitor can be obtained by plotting inhibitor concentration against PDE activity at that concentration.

T1 sequence (Q9Y233 whole entry): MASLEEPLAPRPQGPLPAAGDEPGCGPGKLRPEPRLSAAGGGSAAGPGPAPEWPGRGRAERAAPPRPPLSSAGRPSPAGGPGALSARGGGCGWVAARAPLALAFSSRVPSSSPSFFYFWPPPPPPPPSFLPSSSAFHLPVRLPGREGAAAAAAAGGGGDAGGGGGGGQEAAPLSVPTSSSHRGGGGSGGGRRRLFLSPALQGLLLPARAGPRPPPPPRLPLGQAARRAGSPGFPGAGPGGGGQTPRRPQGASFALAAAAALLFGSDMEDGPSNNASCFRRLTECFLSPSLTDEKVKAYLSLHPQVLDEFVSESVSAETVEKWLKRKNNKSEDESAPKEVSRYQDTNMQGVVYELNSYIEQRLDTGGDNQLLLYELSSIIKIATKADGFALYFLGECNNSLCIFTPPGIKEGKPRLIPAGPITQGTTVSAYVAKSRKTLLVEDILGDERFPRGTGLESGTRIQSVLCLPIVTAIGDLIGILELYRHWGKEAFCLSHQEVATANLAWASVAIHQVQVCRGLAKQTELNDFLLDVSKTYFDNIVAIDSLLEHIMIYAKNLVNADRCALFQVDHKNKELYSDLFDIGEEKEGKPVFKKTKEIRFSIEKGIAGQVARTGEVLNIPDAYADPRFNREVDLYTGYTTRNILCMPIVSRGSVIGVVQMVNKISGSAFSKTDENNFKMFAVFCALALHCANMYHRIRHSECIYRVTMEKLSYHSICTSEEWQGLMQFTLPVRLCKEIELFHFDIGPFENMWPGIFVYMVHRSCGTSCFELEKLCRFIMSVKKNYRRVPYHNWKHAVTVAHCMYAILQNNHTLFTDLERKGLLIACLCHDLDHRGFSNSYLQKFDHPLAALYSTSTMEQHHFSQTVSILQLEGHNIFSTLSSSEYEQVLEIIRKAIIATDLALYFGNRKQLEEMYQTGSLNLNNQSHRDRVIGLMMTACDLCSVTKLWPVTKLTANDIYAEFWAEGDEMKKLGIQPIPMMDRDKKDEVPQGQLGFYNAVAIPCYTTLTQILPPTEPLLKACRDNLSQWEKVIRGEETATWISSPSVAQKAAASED

Row | IC50 [nM] | SMILES
1 | < 100 | COc1ccc(-c2cccc3c2C(=O)N(CCc2ccc4ccccc4n2)C3)cc1 [Example 23, 7-(4-Methoxy-phenyl)-2-(2-quinolin-2-yl-ethyl)-2,3-dihydro-isoindol-1-one]
2 | < 100 | Cn1nccc1-c1cccc2c1C(=O)N(CCc1ccc3ccccc3n1)C2 [Example 74, 7-(2-Methyl-2H-pyrazol-3-yl)-2-(2-quinolin-2-yl-ethyl)-2,3-dihydro-isoindol-1-one]
3 | 200 to 500 | CN(C)c1cccc(-c2cccc3c2C(=O)N(CCc2ccc4ccccc4n2)C3)c1 [Example 43, 7-(3-Dimethylamino-phenyl)-2-(2-quinolin-2-yl-ethyl)-2,3-dihydro-isoindol-1-one]
4 | < 100 | O=C1c2c(-c3ccncc3)ccnc2CN1CCc1cc(-c2ccncc2)c2ccccc2n1 [compound 484, 4-(4-Pyridyl)-6-[2-[4-(4-pyridyl)-2-quinolyl]ethyl]-7H-pyrrolo[3,4-b]pyridin-5-one]
5 | 100 to 200 | COc1cnccc1-c1cccc2c1C(=O)N(CCc1ccc3ccccc3n1)C2 [Example 169, 7-(3-Methoxy-pyridin-4-yl)-2-(2-quinolin-2-yl-ethyl)-2,3-dihydro-isoindol-1-one trifluoroacetate]
6 | < 100 | COCCCOc1ccc(-c2ccncc2)c2c1CN(CCc1ccc3ccccc3n1)C2=O [Example 204, 4-(3-Methoxy-propoxy)-7-pyridin-4-yl-2-(2-quinolin-2-yl-ethyl)-2,3-dihydro-isoindol-1-one]
7 | 200 to 500 | Cc1cscc1-c1cccc2c1C(=O)N(CCc1ccc3ccccc3n1)C2 [Example 73, 7-(4-Methyl-thiophen-3-yl)-2-(2-quinolin-2-yl-ethyl)-2,3-dihydro-isoindol-1-one]
8 | 100 to 200 | O=C1c2c(cccc2-c2ccnc(Cl)c2)CN1CCc1ccc2ccccc2n1 [Example 171, 7-(2-Chloro-pyridin-4-yl)-2-(2-quinolin-2-yl-ethyl)-2,3-dihydro-isoindol-1-one trifluoroacetate]
9 | 200 to 500 | O=C1c2c(cccc2NCc2ccncc2)CN1CCc1ccc2ccccc2n1 [Example 125, 7-[(Pyridin-4-ylmethyl)-amino]-2-(2-quinolin-2-yl-ethyl)-2,3-dihydro-isoindol-1-one]
10 | < 100 | O=C1c2c(cccc2-c2ccncc2)CN1CC(F)(F)c1ccc2ccccc2n1 [Example 13, 2-(2,2-Difluoro-2-quinolin-2-yl-ethyl)-7-pyridin-4-yl-2,3-dihydro-isoindol-1-one]
11 | < 100 | O=C1c2c(-c3ccncc3)ccc(OCCF)c2CN1CCc1ccc2ccccc2n1 [compound 533, 4-(2-Fluoro-ethoxy)-7-pyridin-4-yl-2-(2-quinolin-2-yl-ethyl)-2,3-dihydro-isoindol-1-one]
12 | < 100 | Cc1ccc2nc(CCN3Cc4nccc(-c5ccncc5)c4C3=O)ccc2c1 [compound 406, 6-[2-(6-Methyl-2-quinolyl)ethyl]-4-(4-pyridyl)-7H-pyrrolo[3,4-b]pyridin-5-one]
13 | < 100 | O=C1c2c(cccc2-c2ccc3cc[nH]c3c2)CN1CCc1ccc2ccccc2n1 [Example 64, 7-(1H-Indol-6-yl)-2-(2-quinolin-2-yl-ethyl)-2,3-dihydro-isoindol-1-one]
14 | 100 to 200 | O=C1c2c(cccc2-c2ccn[nH]2)CN1CCc1ccc2sccc2n1 [Example 560, 7-(1H-Pyrazol-5-yl)-2-(2-thieno[3,2-b]pyridin-5-ylethyl)isoindolin-1-one]
15 | < 100 | Cn1c(CCN2Cc3cccc(-c4ccncc4)c3C2=O)nc2cc(F)ccc21 [Example 221, 2-[2-(5-Fluoro-1-methyl-1H-benzoimidazol-2-yl)-ethyl]-7-pyridin-4-yl-2,3-dihydro-isoindol-1-one trifluoroacetate]
16 | < 100 | CN(C)CCn1c(CCN2Cc3cccc(-c4ccncc4)c3C2=O)nc2ccccc21 [Example 293, 2-{2-[1-(2-Dimethylamino-ethyl)-1H-benzoimidazol-2-yl]-ethyl}-7-pyridin-4-yl-2,3-dihydro-isoindol-1-one trifluoroacetate]
17 | 200 to 500 | O=C1c2c(cccc2-c2cccc(F)c2F)CN1CCc1ccc2ccccc2n1 [Example 50, 7-(2,3-Difluoro-phenyl)-2-(2-quinolin-2-yl-ethyl)-2,3-dihydro-isoindol-1-one]
18 | < 100 | O=C1c2cccc(-c3cccnc3)c2CN1CCc1ccc2ccccc2n1 [Example 201, 4-Pyridin-3-yl-2-(2-quinolin-2-yl-ethyl)-2,3-dihydro-isoindol-1-one]

Row | IC50 [nM] | SMILES
19 | 200 to 500 | O=C1c2c(cccc2N2CCCC3NCCCC32)CN1CCc1ccc2ccccc2n1 (stereo not shown) [Example 279, 7-(Octahydro-[1,5]naphthyridin-1-yl)-2-(2-quinolin-2-yl-ethyl)-2,3-dihydro-isoindol-1-one trifluoroacetate]
20 | 100 to 200 | O=C1c2c(cccc2-c2cccc(F)c2)CN1CCc1ccc2ccccc2n1 [Example 27, 7-(3-Fluoro-phenyl)-2-(2-quinolin-2-yl-ethyl)-2,3-dihydro-isoindol-1-one]
21 | < 100 | O=C1c2c(-c3ccncc3)ccnc2CN1CCc1cn2ccsc2n1 [compound 423, 6-(2-Imidazo[2,1-b]thiazol-6-ylethyl)-4-(4-pyridyl)-7H-pyrrolo[3,4-b]pyridin-5-one trifluoroacetate]
22 | < 100 | O=C1c2cccc(-c3ccsc3)c2CN1CCc1ccc2ccccc2n1 [Example 345, 2-(2-Quinolin-2-yl-ethyl)-4-thiophen-3-yl-2,3-dihydro-isoindol-1-one]
23 | < 100 | O=C1c2c(cccc2-c2ccncc2F)CN1CCc1ccc2ccccc2n1 [Example 173, 7-(3-Fluoro-pyridin-4-yl)-2-(2-quinolin-2-yl-ethyl)-2,3-dihydro-isoindol-1-one]
24 | 200 to 500 | O=C1c2c(cccc2-c2ccc3occc3c2)CN1CCc1ccc2ccccc2n1 [Example 72, 7-Benzofuran-5-yl-2-(2-quinolin-2-yl-ethyl)-2,3-dihydro-isoindol-1-one]
25 | < 100 | CCc1csc(CCN2Cc3nccc(-c4ccncc4)c3C2=O)n1 [compound 407, 6-[2-(4-Ethylthiazol-2-yl)ethyl]-4-(4-pyridyl)-7H-pyrrolo[3,4-b]pyridin-5-one]
26 | < 100 | Cn1c2cccc(-c3ccncc3)c2c(=O)n1CCc1ccc2ccccc2n1 [Example 17, 1-Methyl-4-(pyridin-4-yl)-2-(2-(quinolin-2-yl)ethyl)-1,2-dihydroindazol-3-one]
27 | 200 to 500 | O=C1c2cccc(-c3ccc(F)cc3)c2CN1CCc1ccc2ccccc2n1 [Example 212, 4-(4-Fluoro-phenyl)-2-(2-quinolin-2-yl-ethyl)-2,3-dihydro-isoindol-1-one trifluoroacetate]
28 | < 100 | Cc1ncc(-c2cccc3c2CN(CCc2ccc4ccccc4n2)C3=O)s1 [Example 342, 4-(2-Methyl-thiazol-5-yl)-2-(2-quinolin-2-yl-ethyl)-2,3-dihydro-isoindol-1-one]
29 | 200 to 500 | O=C1c2c(cccc2-c2ccc(F)c(F)c2)CN1CCc1ccc2ccccc2n1 [Example 33, 7-(3,4-Difluoro-phenyl)-2-(2-quinolin-2-yl-ethyl)-2,3-dihydro-isoindol-1-one]
30 | 200 to 500 | Cn1c(CCN2Cc3cccc(-c4ccc(F)cc4)c3C2=O)nc2ccccc21 [Example 211, 7-(4-Fluoro-phenyl)-2-[2-(1-methyl-1H-benzoimidazol-2-yl)-ethyl]-2,3-dihydro-isoindol-1-one trifluoroacetate]
31 | 100 to 200 | COc1cnccc1-c1cccc2c1CN(CCc1ccc3ccccc3n1)C2=O [compound 388, 4-(3-Methoxy-4-pyridyl)-2-[2-(2-quinolyl)ethyl]isoindolin-1-one]
32 | < 100 | O=C1c2cccc(-c3cn[nH]c3)c2CN1CCc1ccc2ccccc2n1 [Example 225, 4-(1H-Pyrazol-4-yl)-2-(2-quinolin-2-yl-ethyl)-2,3-dihydro-isoindol-1-one]
33 | 200 to 500 | COc1cc(-c2cccc3c2C(=O)N(CCc2ccc4ccccc4n2)C3)ccn1 [Example 182, 7-(2-Methoxy-pyridin-4-yl)-2-(2-quinolin-2-yl-ethyl)-2,3-dihydro-isoindol-1-one trifluoroacetate]
34 | 100 to 200 | CC(C)n1c(CCN2Cc3cccc(-c4ccncc4)c3C2=O)nc2ccccc21 [Example 303, 2-[2-(1-Isopropyl-1H-benzoimidazol-2-yl)-ethyl]-7-pyridin-4-yl-2,3-dihydro-isoindol-1-one trifluoroacetate]
35 | < 100 | O=C1c2c(cccc2-c2cnc[nH]2)CN1CCc1ccc2ccccc2n1 [Example 84, 7-(3H-Imidazol-4-yl)-2-(2-quinolin-2-yl-ethyl)-2,3-dihydro-isoindol-1-one]
36 | < 100 | O=C1c2c(N3CCC(F)(F)CC3)ccnc2CN1CCc1ccc2ccccc2n1 [Example 258, 4-(4,4-Difluoro-piperidin-1-yl)-6-(2-quinolin-2-yl-ethyl)-6,7-dihydro-pyrrolo[3,4-b]pyridin-5-one]

Row | SMILES | IC50 [nM]
37 | O=C1c2c(N3CC4COCC4C3)ccnc2CN1CCc1ccc2ccccc2n1 (stereo not shown) [Example 260, 6-(2-Quinolin-2-yl-ethyl)-4-(tetrahydro-furo[3,4-c]pyrrol-5-yl)-6,7-dihydro-pyrrolo[3,4-b]pyridin-5-one] | < 100
